Source: ChEMBL document CHEMBL4196043, “Discovery and optimization of 2-thio-5-amino substituted benzoquinones as potent anticancer agents” (Eur J Med Chem, 2018)

Legend:
[1] = test system: PC-3; test: Antiproliferative activity against human PC3 cells after 48 hrs by MTS assay; format: functional, cell-based; details: PC-3, 48 h
[2] = test system: PC-3; test: Growth inhibition of human PC3 cells at 10 uM after 48 hrs by MTS assay; format: functional; details: PC-3, 48 h, read-out: GI
[3] = Aqueous solubility of the compound in water by HPLC-UV spectrophotometric analysis; format: physicochemical
[4] = test system: BGC-823; test: Growth inhibition of human BGC823 cells at 10 uM; format: functional; details: read-out: GI
[5] = test system: A549; test: Growth inhibition of human A549 cells at 10 uM after 48 hrs by MTS assay; format: functional; details: A549, 48 h, read-out: GI
[6] = test system: HCT-116; test: Antiproliferative activity against human HCT116 cells after 48 hrs by MTS assay; format: functional, cell-based; details: HCT-116, 48 h
[7] = test system: A549; test: Antiproliferative activity against human A549 cells after 48 hrs by MTS assay; format: functional, cell-based; details: A549, 48 h
[8] = Antiproliferative activity against human HELF after 48 hrs by MTS assay
[9] = Selectivity index, ratio of IC50 for human HELF to IC50 for human PC3 cells; format: toxicity; details: HELF cells and PC3 cells, read-out: Ratio IC50
[10] = test system: SW480; test: Antiproliferative activity against human SW480 cells after 48 hrs by MTS assay; format: functional, cell-based; details: SW480, 48 h
[11] = test system: MCF7; test: Antiproliferative activity against human MCF7 cells after 48 hrs by MTS assay; format: functional, cell-based; details: MCF7, 48 h
[12] = test system: A-375; test: Antiproliferative activity against human A375 cells after 48 hrs by MTS assay; format: functional, cell-based; details: A-375, 48 h

Compound	IC50 [1]	inhibition of growth at 10 µM [2]	other results
C=CCSC1=CC(=O)C(NCCCN2CCOCC2)=CC1=O	1.46 µM		
C=CCSC1=CC(=O)C(NCCP(=O)(OCC)OCC)=CC1=O	0.701 µM		
C=C(C)CSC1=CC(=O)C(NCC(C)O)=CC1=O (stereo not drawn)		61.9%	
C=CCSC1=CC(=O)C(N[C@H]2CC[C@H](O)CC2)=CC1=O	0.33 µM		solubility [3]: < 1 mg/mL
C=CCSC1=CC(=O)C(N[C@H]2CC[C@@H](N)CC2)=CC1=O	0.483 µM		
C=CCSC1=CC(=O)C(NCCCNCCO)=CC1=O	2.17 µM		
C=CCSC1=CC(=O)C(NCCCO)=CC1=O	0.678 µM		
C=CCSC1=CC(=O)C(NCC(C)O)=CC1=O (stereo not drawn)	5 µM	88%	inhibition of growth at 10 µM [4]: 88.5%; inhibition of growth at 10 µM [5]: 85.5%
COc1ccccc1/C=C/CSC1=CC(=O)C(NCC(C)O)=CC1=O (stereo not drawn)		5.9%	
C=CCSC1=CC(=O)C(NCC(O)CO)=CC1=O (stereo not drawn)	3.98 µM		
CC(O)CNC1=CC(=O)C(SC2C=CCCC2)=CC1=O (stereo not drawn)		46.9%	
C=C(Cl)CSC1=CC(=O)C(NCC(C)O)=CC1=O (stereo not drawn)		20%	
C=CCSC1=CC(=O)C(NCCCl)=CC1=O	0.602 µM		
C=CCSC1=CC(=O)C(NCCN2CCNC2=O)=CC1=O	2.19 µM		
C=C(CSC1=CC(=O)C(NCC(C)O)=CC1=O)c1ccccc1 (stereo not drawn)		11.8%	
C=CCSC1=CC(=O)C(NCCC(=O)OC)=CC1=O	4.67 µM		
CC(O)CNC1=CC(=O)C(SC/C=C/c2ccc(F)cc2)=CC1=O (stereo not drawn)		12.2%	
C=CCSC1=CC(=O)C(NCCNC(C)=O)=CC1=O	2.77 µM		
C=CCSC1=CC(=O)C(N[C@H]2CC[C@H](N)CC2)=CC1=O.Cl	0.224 µM		IC50 [6]: 0.408 µM; IC50 [7]: 0.376 µM; IC50 [8]: 10.5 µM; selectivity ratio [9]: 47; solubility [3]: 23.2 mg/mL; IC50 [10]: 1.22 µM; IC50 [11]: 0.259 µM; IC50 [12]: 0.22 µM
CC(O)CNC1=CC(=O)C(SC/C=C/c2ccccc2)=CC1=O (stereo not drawn)		3.75%	
C=CCSC1=CC(=O)C(NCCS(C)(=O)=O)=CC1=O	1.54 µM		
C=CCSC1=CC(=O)C(NCCO)=CC1=O	0.72 µM		
C/C=C/CSC1=CC(=O)C(NCC(C)O)=CC1=O (stereo not drawn)		67.6%	
C=CCSC1=CC(=O)C(NCCCN(C)C)=CC1=O.Cl	0.91 µM		solubility [3]: > 200 mg/mL
C=CCSC1=CC(=O)C(NCCOCCO)=CC1=O	0.394 µM		
C=CCSC1=CC(=O)C(NCCCN)=CC1=O	1.57 µM		
C=CCSC1=CC(=O)C(NCCCCO)=CC1=O	0.461 µM		
CC(O)CNC1=CC(=O)C(SC/C=C/c2cccnc2)=CC1=O (stereo not drawn)		9.45%	
C=CCSC1=CC(=O)C(NCCCNC)=CC1=O.Cl	0.314 µM		solubility [3]: > 200 mg/mL
